Reference: patent US20250339409A1, “USES OF PAN BET INHIBITORS” (VYNE THERAPEUTICS INC., priority 2021, published 2025)

System: imiquimod-induced psoriasis
Experiment: Imiquimod-induced psoriasis (Th17 inflammation) model in mice, topical treatment once daily D7-D13: PASI, modified PASI, body weight, use of enrichment, TEWL
Assay type: in vivo
Parameters: key to Mean score use enrichment: 0 = no use of dental rolls to 4 = use of all 4; key to PASI Mean score values: sum of erythema, induration, peeling scores, each 0-3 (0 = none)
Conditions: imiquimod-induced mice
Description: Thirty-six (36) female Balb/c mice are weighed and randomly divided into 9 groups (n=4) according to body weight on D1. For mice of native group 1 and tolerance groups 8 and 9, no induction of psoriasis is performed between D1 and D13. Psoriasis is induced in groups 2 to 7 by once daily topical application for 13 days (from day 1 to day 13) of 65 mg of Aldara™ cream (5.0% imiquimod) onto the shaved and epilated back of mice. Before the first treatment, a second randomization of mice of the 6 imiquimod-induced psoriasis groups is performed according to the severity of psoriasis (PASI), and also the body weight of mice. Starting on day 7 and until day 13, 100 mg of test formulations […] and 65 mg of vehicle (groups 1 and […]) are topically administered once daily for 7 consecutive days onto the shaved back skin of mice. Several measurements are taken during treatment period from day 7 to day 14: psoriasis index (PASI), body weight, use of enrichment and mortality. At the end of treatment period, TEWL is assessed, and blood and skin samples are collected. Histological analysis of skin samples is used for microscopic scoring of psoriasis and the determination of the thickness of parakeratosis and epidermis and blood analysis is used for assessing the level of proinflammatory biomarkers (cytokines assays). The effect of treatment of psoriasis induced mice with BETi formulations at the four dose levels are compared with Dermoval® cream containing 0.05% clobetasol propionate (reference) and vehicle (positive control) and also with healthy mice treated with vehicle (negative control).
PASI scoring takes into account the following 3 parameters: the presence of erythema on the skin, induration of the skin (thickening) and peeling of the skin at the area of the induction of psoriasis.
The presence of erythema on the skin at the area of induction of psoriasis with the following scoring grid: • 0=no or no more erythema on the skin, • 1=weak erythema on the skin, • 2=moderate erythema on the skin, • 3=important erythema on the skin.
The presence of induration of the skin at the area of induction of psoriasis with the following scoring grid: • 0=no or no more induration of the skin, • 1=weak induration of the skin, • 2=moderate induration of the skin, • 3=important induration of the skin.
The presence of peeling of the skin at the area of induction of psoriasis with the following scoring grid: • 0=no or no more dryness/peeling of the skin, • 1=weak dryness/peeling of the skin, • 2=moderate dryness/peeling of the skin, • 3=important dryness/peeling of the skin.
The sum of the mean scores of these 3 parameters result in the mean PASI score.
One of the issues with a steroid is that it causes skin thinning and continues to have an effect on no longer inflamed skin and the model set up and measurements above are not designed to reflect this negative effect. Therefore, a modified PASI (mPASI) is calculated in the same the manner as mean PASI score but excludes the scoring for induration (thickening of the skin).
Mice are weighed three times during the week of D1 to D7, and then daily during the week of D7 to D13, as well as on the day D14 when they are sacrificed. It should be noted that a characteristic body weight loss of mice is observed after the start of the induction of psoriasis, mainly during the first days following it. The body weight loss can reach between 10 to 15%.
For the duration of the experiment, dental rolls are used as enrichment and placed in each cage and replaced twice. Between D1 and D7, the number of dental rolls used by animals are determined twice in the morning, and are determined daily during D7 to D14, at the time of PASI or the tolerance assessment. The use of dental rolls is scored from 0=no use of dental rolls to 4=use of the 4 dental rolls. In the case where only half of a dental roll is used, a score of 0.5 is assigned. […]

Cn1cc(-c2cccc(O)c2Oc2ccccc2)c2cc[nH]c2c1=O [BETi1]
PASI Mean score values (D 7): 8.00 | Modified PASI Mean score values (D 7, listed as BETI1 0.01%): 5.75 | Modified PASI Mean score values (D 7, listed as BETI1 0.1%): 5.75 | Modified PASI Mean score values (D 7, listed as BETI1 1.0%): 5.50 | Mean score use enrichment (D 7, listed as BETi 0.001%): 4.00 | Mean score use enrichment (D 7, listed as BETi 0.01%): 3.50 | Mean score use enrichment (D 7, listed as BETi 0.1%): 3.00 | Modified PASI Mean score values (D 7, listed as BETi1 0.001%): 5.50 | Mean score use enrichment (D 7, listed as BETi 1.0%): 2.00 | Mean score use enrichment (D 8-D 14, listed as BETi 0.001%): 3.17 | Mean score use enrichment (D 8-D 14, listed as BETi 0.01%): 3.58 | Mean score use enrichment (D 8-D 14, listed as BETi 0.1%): 3.75 | Mean score use enrichment (D 8-D 14, listed as BETi 1.0%): 3.58 | Modified PASI Mean score values (D 8, listed as BETI1 0.1%): 6.00 | PASI Mean score values (D 8, listed as BETI1 0.1%): 8.50 | Modified PASI Mean score values (D 8, listed as BETI1 1.0%): 6.25 | PASI Mean score values (D 8, listed as BETI1 1.0%): 9.00 | Mean score use enrichment (D 8, listed as BETi 0.001%): 4.00 | Mean score use enrichment (D 8, listed as BETi 0.01%): 4.00 | Mean score use enrichment (D 8, listed as BETi 0.1%): 3.25 | Modified PASI Mean score values (D 8, listed as BETi1 0.001%): 7.00 | PASI Mean score values (D 8, listed as BETi1 0.001%): 10.00 | Modified PASI Mean score values (D 8, listed as BETi1 0.01%): 5.50 | PASI Mean score values (D 8, listed as BETi1 0.01%): 8.25 | Mean score use enrichment (D 8, listed as BETi 1.0%): 2.25 | Modified PASI Mean score values (D 9, listed as BETI1 0.1%): 4.50 | PASI Mean score values (D 9, listed as BETI1 0.1%): 7.25 | Modified PASI Mean score values (D 9, listed as BETI1 1.0%): 5.75 | PASI Mean score values (D 9, listed as BETI1 1.0%): 8.50 | Mean score use enrichment (D 9, listed as BETi 0.001%): 1.00 | Mean score use enrichment (D 9, listed as BETi 0.01%): 2.25 | Mean score use enrichment (D 9, listed as BETi 0.1%): 2.75 | Modified PASI Mean score values (D 9, listed as BETi1 0.001%): 6.25 | PASI Mean score values (D 9, listed as BETi1 0.001%): 9.25 | Modified PASI Mean score values (D 9, listed as BETi1 0.01%): 4.00 | PASI Mean score values (D 9, listed as BETi1 0.01%): 6.75 | Mean score use enrichment (D 9, listed as BETi 1.0%): 2.00 | Modified PASI Mean score values (D 10, listed as BETI1 0.1%): 2.75 | PASI Mean score values (D 10, listed as BETI1 0.1%): 4.50 | Modified PASI Mean score values (D 10, listed as BETI1 1.0%): 4.75 | PASI Mean score values (D 10, listed as BETI1 1.0%): 7.25 | Mean score use enrichment (D 10, listed as BETi 0.001%): 2.25 | Mean score use enrichment (D 10, listed as BETi 0.01%): 3.25 | Mean score use enrichment (D 10, listed as BETi 0.1%): 3.75 | Modified PASI Mean score values (D 10, listed as BETi1 0.001%): 5.50 | PASI Mean score values (D 10, listed as BETi1 0.001%): 8.50 | Modified PASI Mean score values (D 10, listed as BETi1 0.01%): 3.50 | PASI Mean score values (D 10, listed as BETi1 0.01%): 6.00 | Mean score use enrichment (D 10, listed as BETi 1.0%): 3.00 | Modified PASI Mean score values (D 11, listed as BETI1 0.1%): 1.25 | PASI Mean score values (D 11, listed as BETI1 0.1%): 2.75 | Modified PASI Mean score values (D 11, listed as BETI1 1.0%): 3.50 | PASI Mean score values (D 11, listed as BETI1 1.0%): 5.50 | Mean score use enrichment (D 11, listed as BETi 0.001%): 3.75 | Mean score use enrichment (D 11, listed as BETi 0.01%): 4.00 | Mean score use enrichment (D 11, listed as BETi 0.1%): 4.00 | Modified PASI Mean score values (D 11, listed as BETi1 0.001%): 5.50 | PASI Mean score values (D 11, listed as BETi1 0.001%): 8.00 | Mean body weights (D 11, listed as BETi1 0.01%): 17.93 | Modified PASI Mean score values (D 11, listed as BETi1 0.01%): 2.75 | PASI Mean score values (D 11, listed as BETi1 0.01%): 5.00 | Mean score use enrichment (D 11, listed as BETi 1.0%): 3.50 | Modified PASI Mean score values (D 12, listed as BETI1 0.1%): 0.50 | PASI Mean score values (D 12, listed as BETI1 0.1%): 1.00 | Modified PASI Mean score values (D 12, listed as BETI1 1.0%): 4.25 | PASI Mean score values (D 12, listed as BETI1 1.0%): 7.25 | Mean score use enrichment (D 12, listed as BETi 0.001%): 4.00 | Mean score use enrichment (D 12, listed as BETi 0.01%): 4.00 | Mean score use enrichment (D 12, listed as BETi 0.1%): 4.00 | Modified PASI Mean score values (D 12, listed as BETi1 0.001%): 4.50 | PASI Mean score values (D 12, listed as BETi1 0.001%): 6.00 | Modified PASI Mean score values (D 12, listed as BETi1 0.01%): 1.00 | PASI Mean score values (D 12, listed as BETi1 0.01%): 2.25 | Mean score use enrichment (D 12, listed as BETi 1.0%): 2.25 | Modified PASI Mean score values (D 13, listed as BETI1 0.1%): 0.50 | PASI Mean score values (D 13, listed as BETI1 0.1%): 1.00 | Modified PASI Mean score values (D 13, listed as BETI1 1.0%): 3.25 | PASI Mean score values (D 13, listed as BETI1 1.0%): 5.25 | Mean score use enrichment (D 13, listed as BETi 0.001%): 4.00 | Mean score use enrichment (D 13, listed as BETi 0.01%): 4.00 | Mean score use enrichment (D 13, listed as BETi 0.1%): 4.00 | Modified PASI Mean score values (D 13, listed as BETi1 0.001%): 4.00 | PASI Mean score values (D 13, listed as BETi1 0.001%): 5.50 | Modified PASI Mean score values (D 13, listed as BETi1 0.01%): 1.75 | PASI Mean score values (D 13, listed as BETi1 0.01%): 2.75 | Mean score use enrichment (D 13, listed as BETi 1.0%): 2.75 | Mean score use enrichment (D 14): 4.00 | Mean TEWL score values (D14, Lower back, listed as BETi1 1.0%): 30.63 g/h/m2 | Mean TEWL score values (D14, Lower back, listed as BETi10.001%): 42.11 g/h/m2 | Mean TEWL score values (D14, Lower back, listed as BETi10.01%): 57.25 g/h/m2 | Mean TEWL score values (D14, Lower back, listed as BETi10.1%): 39.27 g/h/m2 | Mean TEWL score values (D14, Mean, listed as BETi1 1.0%): 38.60 g/h/m2 | Mean TEWL score values (D14, Mean, listed as BETi10.001%): 40.35 g/h/m2 | Mean TEWL score values (D14, Mean, listed as BETi10.01%): 39.55 g/h/m2 | Mean TEWL score values (D14, Mean, listed as BETi10.1%): 27.14 g/h/m2 | Mean TEWL score values (D14, Mid back, listed as BETi1 1.0%): 40.80 g/h/m2 | Mean TEWL score values (D14, Mid back, listed as BETi10.001%): 41.26 g/h/m2 | Mean TEWL score values (D14, Mid back, listed as BETi10.01%): 34.53 g/h/m2 | Mean TEWL score values (D14, Mid back, listed as BETi10.1%): 24.04 g/h/m2 | Mean TEWL score values (D14, Upper back, listed as BETi1 1.0%): 44.36 g/h/m2 | Mean TEWL score values (D14, Upper back, listed as BETi10.001%): 37.67 g/h/m2 | Mean TEWL score values (D14, Upper back, listed as BETi10.01%): 26.87 g/h/m2 | Mean TEWL score values (D14, Upper back, listed as BETi10.1%): 18.11 g/h/m2 | Modified PASI Mean score values (D 14, listed as BETI1 0.1%): 0.50 | PASI Mean score values (D 14, listed as BETI1 0.1%): 1.25 | Modified PASI Mean score values (D 14, listed as BETI1 1.0%): 3.50 | PASI Mean score values (D 14, listed as BETI1 1.0%): 5.00 | Modified PASI Mean score values (D 14, listed as BETi1 0.001%): 3.75 | PASI Mean score values (D 14, listed as BETi1 0.001%): 5.50 | Modified PASI Mean score values (D 14, listed as BETi1 0.01%): 1.50 | PASI Mean score values (D 14, listed as BETi1 0.01%): 2.25 | clinical signs (end of treatment): substantial resolution of clinical signs | dermal tolerance (topical 7 days): no evidence of dermal tolerance issues | reduction in mPASI score (composite inflammation severity score) relative to vehicle control group (treatment Day 7): 94% | Absolute Body Weight Change from day 1 to day 14, D14 − D1, individual mouse (listed as BETi1 -0.001%): 1.58
